≈ marks a conversion by molar mass, not a printed value. Calls of active or inactive are those of the source. No cut-off for these calls is given here.
What was measured:
[1] = test system: Candida albicans; experiment: Antifungal activity against fluconazole-resistant Candida albicans 901 assessed as inhibition of fungal growth measured after 72 hrs by CLSI based liquid medium dilution method; format: functional
[2] = test system: Candida albicans; experiment: Antifungal activity against fluconazole-resistant Candida albicans 632 assessed as inhibition of fungal growth measured after 72 hrs by CLSI based liquid medium dilution method; format: functional
[3] = test system: Candida albicans; experiment: Antifungal activity against Candida albicans assessed as inhibition of fungal cell proliferation by measuring decrease in fungal cell density measured after 24 hrs; format: functional, organism-based
[4] = test system: Candida albicans; experiment: Induction of apoptosis in Candida albicans assessed as early apoptotic cells measured after 24 hrs by Annexin V-FITC/PI staining based flow cytometry (reference value: 0.46%); format: functional
[5] = test system: Candida albicans; experiment: Induction of apoptosis in Candida albicans assessed as late apoptotic cells measured after 24 hrs by Annexin V-FITC/PI staining based flow cytometry (reference value: 0.44%); format: functional
[6] = molecular target: T1, Lanosterol 14-alpha demethylase (Candida albicans (strain SC5314 / ATCC MYA-2876) (Yeast), UniProt P10613); experiment: Inhibition of CYP51 in Candida albicans ATCC SC5314 assessed as lanosterol content at 4 ug/ml measured after 48 hrs by GC-MS analysis; parameters: scale not given: the % may be the effect or the level left; conditions: at 4 µg/mL
T1 sequence (P10613 whole entry): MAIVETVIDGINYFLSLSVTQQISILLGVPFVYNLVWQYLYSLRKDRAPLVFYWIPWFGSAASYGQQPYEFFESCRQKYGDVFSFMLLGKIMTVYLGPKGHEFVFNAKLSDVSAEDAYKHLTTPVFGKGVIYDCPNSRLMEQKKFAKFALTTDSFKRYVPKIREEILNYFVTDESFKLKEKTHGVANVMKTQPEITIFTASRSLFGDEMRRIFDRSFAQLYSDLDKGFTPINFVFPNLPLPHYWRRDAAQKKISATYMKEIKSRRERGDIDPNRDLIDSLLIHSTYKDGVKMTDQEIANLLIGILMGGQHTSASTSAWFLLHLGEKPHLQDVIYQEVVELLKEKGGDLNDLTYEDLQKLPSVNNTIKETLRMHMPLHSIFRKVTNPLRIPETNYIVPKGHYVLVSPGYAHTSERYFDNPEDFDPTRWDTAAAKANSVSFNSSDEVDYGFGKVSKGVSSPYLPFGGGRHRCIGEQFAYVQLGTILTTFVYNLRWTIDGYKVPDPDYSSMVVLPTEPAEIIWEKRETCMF

[7] = molecular target: T1, Lanosterol 14-alpha demethylase; experiment: Inhibition of CYP51 in Candida albicans ATCC SC5314 assessed as reduction in substrate consumption using lanosterol as substrate preincubated for 30 mins followed by substrate addition and measured after 60 mins by HPLC analysis
[8] = test system: Pichia kudriavzevii; experiment: Antifungal activity against Candida krusei ATCC 6258 assessed as inhibition of fungal growth measured after 72 hrs by CLSI based liquid medium dilution method; format: functional
[9] = test system: Candida albicans; experiment: Antifungal activity against Candida albicans ATCC SC5314 assessed as inhibition of fungal growth measured after 72 hrs by CLSI based liquid medium dilution method; format: functional
[10] = Increase in intracellular ROS level in Candida albicans assessed as fold increase in fluorescence intensity measured after 12 hrs by fluorescence microscopic analysis relative to control; format: functional
[11] = test system: Cryptococcus neoformans; experiment: Antifungal activity against Cryptococcus neoformans assessed as inhibition of fungal growth measured after 72 hrs by CLSI based liquid medium dilution method; format: functional
[12] = test system: Candida tropicalis; experiment: Antifungal activity against Candida tropicalis ATCC 1369 assessed as inhibition of fungal growth measured after 72 hrs by CLSI based liquid medium dilution method; format: functional
[13] = test system: Candida albicans; experiment: Antifungal activity against fluconazole-resistant Candida albicans 904 assessed as inhibition of fungal growth measured after 72 hrs by CLSI based liquid medium dilution method; format: functional
[14] = Drug uptake in Candida albicans ATCC SC5314 assessed as increase in red and green fluorescence intensity measured after 10 hrs by PI/Hoechst […] staining based fluorescence microscopy; format: ADME
[15] = molecular target: T1, Lanosterol 14-alpha demethylase; experiment: Inhibition of CYP51 in Candida albicans ATCC SC5314 assessed as unknown sterol content at 4 ug/ml measured after 48 hrs by GC-MS analysis; parameters: scale not given: the % may be the effect or the level left; conditions: at 4 µg/mL
[16] = molecular target: T2, Prostaglandin G/H synthase 2 (Homo sapiens, UniProt P35354); experiment: Inhibition of COX2 (unknown origin) assessed as reduction in PGF2alpha content using arachidonic acid as substrate preincubated for 10 mins followed by substrate addition and measured after 2 mins by enzyme immunoassay
T2 sequence (P35354 whole entry): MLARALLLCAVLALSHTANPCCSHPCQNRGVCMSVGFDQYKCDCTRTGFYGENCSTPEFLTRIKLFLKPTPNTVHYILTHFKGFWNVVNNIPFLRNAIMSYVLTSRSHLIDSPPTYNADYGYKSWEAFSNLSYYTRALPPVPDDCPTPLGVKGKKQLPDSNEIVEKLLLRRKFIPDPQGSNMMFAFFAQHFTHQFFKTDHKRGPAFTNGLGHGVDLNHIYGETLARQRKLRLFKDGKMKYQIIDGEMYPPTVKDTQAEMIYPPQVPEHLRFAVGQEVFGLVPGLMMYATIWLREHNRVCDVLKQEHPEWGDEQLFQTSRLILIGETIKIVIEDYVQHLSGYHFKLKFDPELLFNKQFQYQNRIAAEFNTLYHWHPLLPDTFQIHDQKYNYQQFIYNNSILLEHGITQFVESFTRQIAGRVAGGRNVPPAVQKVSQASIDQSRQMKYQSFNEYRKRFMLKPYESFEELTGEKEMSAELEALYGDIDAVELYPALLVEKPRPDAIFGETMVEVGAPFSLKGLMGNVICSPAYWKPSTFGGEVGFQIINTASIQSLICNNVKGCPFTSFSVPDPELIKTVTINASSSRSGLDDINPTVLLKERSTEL

[17] = test system: Candida albicans; experiment: Induction of mitochondrial membrane depolarization in Candida albicans assessed as fungal cells with intact mitochondria measured after 24 hrs by JC-1 staining based flow cytometry (reference value: 95.9%); format: functional
[18] = molecular target: T1, Lanosterol 14-alpha demethylase; experiment: Inhibition of CYP51 in Candida albicans ATCC SC5314 assessed as ergosterol content at 4 ug/ml measured after 48 hrs by GC-MS analysis (reference value: 95.61%); parameters: scale not given: the % may be the effect or the level left; conditions: at 4 µg/mL
[19] = test system: Candida albicans; experiment: Antifungal activity against fluconazole-resistant Candida albicans CaR assessed as inhibition of fungal growth measured after 72 hrs by CLSI based liquid medium dilution method; format: functional
[20] = Increase in intracellular ROS level in Cryptococcus neoformans assessed as fold increase in fluorescence intensity measured after 12 hrs by fluorescence microscopic analysis relative to control; format: functional
[21] = test system: Candida albicans; experiment: Induction of mitochondrial membrane depolarization in Candida albicans assessed as fungal cells with depolarized mitochondria measured after 24 hrs by JC-1 staining based flow cytometry (reference value: 3.22%); format: functional
[22] = test system: Candida albicans; experiment: Induction of apoptosis in Candida albicans assessed as necrotic cells measured after 24 hrs by Annexin V-FITC/PI staining based flow cytometry (reference value: 3.37%); format: functional
[23] = molecular target: T1, Lanosterol 14-alpha demethylase; experiment: Inhibition of CYP51 in Candida albicans ATCC SC5314 assessed as eburicol content at 4 ug/ml measured after 48 hrs by GC-MS analysis (reference value: 1.84%); parameters: scale not given: the % may be the effect or the level left; conditions: at 4 µg/mL
[24] = test system: Aspergillus fumigatus; experiment: Antifungal activity against Aspergillus fumigatus KM8001 assessed as inhibition of fungal growth measured after 72 hrs by CLSI based liquid medium dilution method; format: functional
[25] = test system: Candida albicans; experiment: Antifungal activity against fluconazole-resistant Candida albicans 17# assessed as inhibition of fungal growth measured after 72 hrs by CLSI based liquid medium dilution method; format: functional
[26] = test system: Candida albicans; experiment: Induction of apoptosis in Candida albicans assessed as viable cells measured after 24 hrs by Annexin V-FITC/PI staining based flow cytometry (reference value: 95.7%); format: functional

C[C@H](C(=O)OC(Cn1ccnc1)c1ccc(F)cc1)c1ccc(-c2ccccc2)c(F)c1 (stereo partly specified)
MIC50 [1]: 2 µg/mL (≈ 4.62 µM) | MIC50 [2]: 4 µg/mL (≈ 9.25 µM) | Activity [3]: Active | Activity [4]: 0.086% | Activity [5]: 1.06% | Activity [6]: 33.52% | IC50 [7]: 350 nM | MIC50 [8]: 0.125 µg/mL (≈ 0.289 µM) | MIC50 [9]: 0.25 µg/mL (≈ 0.578 µM) | fold change (FC) [10]: 4 | MIC50 [11]: 0.5 µg/mL (≈ 1.16 µM) | MIC50 [12]: 0.25 µg/mL (≈ 0.578 µM) | MIC50 [13]: 2 µg/mL (≈ 4.62 µM) | Drug uptake [14]: Active | Activity [15]: 5.06% | IC50 [16]: 3760 nM | Activity [17]: 46.6% | Activity [18]: 21.84% | MIC50 [19]: 2 µg/mL (≈ 4.62 µM) | fold change (FC) [20]: 4 | Activity [21]: 52.9% | Activity [22]: 32.7% | Activity [23]: 39.58% | MIC50 [24]: 2 µg/mL (≈ 4.62 µM) | MIC50 [25]: 4 µg/mL (≈ 9.25 µM) | Activity [26]: 66.2%

Source: ChEMBL document CHEMBL5214990, “Novel Aryl Alkamidazole Derivatives as Multifunctional Antifungal Inhibitors: Design, Synthesis, and Biological Evaluation” (J Med Chem, 2022)
